In patent publication EP4729513A1, “A-KETO ACID AMIDE OR SUBSTITUTED OXALIC ACID AMIDE ESTER COMPOUND AND COMPOSITION THEREOF” (Nanjing Chempion Biotechnology Co., Ltd., priority 2023, dated 2025):

target: T1, human TYR (Homo sapiens, UniProt P14679); test: TYR inhibitory activity by modified MBTH (3-methyl-2-benzothiazolinone hydrazine) method; type: biochemical; details: compound concentration 2 µg/mL; levodopa oxidized by human TYR, MBTH chromogenic reagent, absorbance at 505 nm
T1 sequence (P14679 19-529): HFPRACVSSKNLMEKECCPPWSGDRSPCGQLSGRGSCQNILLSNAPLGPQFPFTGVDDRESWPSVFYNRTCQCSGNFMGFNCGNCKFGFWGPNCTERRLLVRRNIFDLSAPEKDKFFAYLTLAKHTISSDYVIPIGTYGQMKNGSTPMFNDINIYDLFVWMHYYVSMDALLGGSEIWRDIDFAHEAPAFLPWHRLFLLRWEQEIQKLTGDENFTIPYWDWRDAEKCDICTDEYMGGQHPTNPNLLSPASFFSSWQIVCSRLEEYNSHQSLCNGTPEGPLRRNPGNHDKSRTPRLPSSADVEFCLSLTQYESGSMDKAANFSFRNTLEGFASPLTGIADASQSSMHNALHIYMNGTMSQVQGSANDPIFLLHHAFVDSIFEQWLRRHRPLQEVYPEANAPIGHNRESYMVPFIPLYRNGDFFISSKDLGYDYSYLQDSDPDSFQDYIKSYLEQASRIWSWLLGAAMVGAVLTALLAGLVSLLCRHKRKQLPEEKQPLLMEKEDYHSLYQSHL
Experimental: A TYR inhibitory activity of a compound was assessed by a 3-methyl-2-benzothiazolinone hydrazine (MBTH) method modified with reference to the existing report (Journal of Biochemical and Biophysical Methods, 1994, 28 (3): 173-183). With MBTH as a chromogenic reagent, an inhibitory activity of a compound against human TYR was determined as follows: Levodopa was oxidized into L-dopaquinone by the human TYR. MBTH was then allowed to undergo a reaction with the L-dopaquinone to produce a colored product. The reaction was terminated, and the specific absorbance of the colored product at 505 nm was measured.

Q: Which inhibition at 2 µg/mL does the source give for CC(C)NC(=O)C(=O)Nc1nc(-c2ccc(O)cc2O)cs1 [N-(4-(2,4-dihydroxyphenyl)thiazol-2-yl)-N'-isopropyloxalamide] here?
A: Its inhibition at 2 µg/mL is 96.7%.

Q: How did the inhibition at 2 µg/mL turn out when O=C(Nc1nc(-c2ccc(O)cc2O)cs1)C(=O)N1CCCC1 [N-(4-(2,4-Dihydroxyphenyl)thiazol-2-yl)-2-oxo-2-(pyrrolidin-1-yl)oxalamide] was run?
A: The inhibition at 2 µg/mL was 93.5%.

Q: Which inhibition at 2 µg/mL does the source give for CCC(=O)C(=O)Nc1nc(-c2ccc(O)cc2O)cs1 [N-(4-(2,4-dihydroxyphenyl)thiazol-2-yl)-2-oxobutanamide] here?
A: Its inhibition at 2 µg/mL is 90%.

Q: How did the inhibition at 2 µg/mL turn out when O=C(Nc1nc(-c2ccc(O)cc2O)cs1)C(=O)C1CC1 [2-cyclopropyl-N-(4-(2,4-dihydroxyphenyl)thiazol-2-yl)-2-oxoacetamide] was run?
A: The inhibition at 2 µg/mL was 75.3%.

Q: For O=C(Nc1nc(-c2ccc(O)cc2O)cs1)C(=O)OC1CC1 [Cyclopropyl 2-((4-(2,4-dihydroxyphenyl)thiazol-2-yl)amino)-2-oxoacetate], which inhibition at 2 µg/mL is on record?
A: The inhibition at 2 µg/mL was 85.8%.

Q: With COC(=O)C(=O)Nc1nc(-c2ccc(O)cc2O)cs1 [Methyl 2-((4-(2,4-dihydroxyphenyl)thiazol-2-yl)amino)-2-oxoacetate] as the compound, how does the inhibition at 2 µg/mL read?
A: The inhibition at 2 µg/mL was 88.1%.

Q: For O=C(Nc1nc(-c2ccc(O)cc2O)cs1)C(=O)N1CCOCC1 [N-(4-(2,4-dihydroxyphenyl)thiazol-2-yl)-2-morpholino-2-oxoacetamide], which inhibition at 2 µg/mL is on record?
A: Its inhibition at 2 µg/mL is 86.1%.

Q: For CC(C)C(=O)C(=O)Nc1nc(-c2ccc(O)cc2O)cs1 [N-(4-(2,4-dihydroxyphenyl)thiazol-2-yl)-3-methyl-2-oxobutanamide], which inhibition at 2 µg/mL is on record?
A: The inhibition at 2 µg/mL was 78.5%.

Q: How did the inhibition at 2 µg/mL turn out when O=C(Nc1nc(-c2ccc(O)cc2O)cs1)C(=O)C1CCCCC1 [2-cyclohexyl-N-(4-(2,4-dihydroxyphenyl)thiazol-2-yl)-2-oxoacetamide] was run?
A: The inhibition at 2 µg/mL was 65%.

Q: Which inhibition at 2 µg/mL does the source give for O=C(Nc1nc(-c2ccc(O)cc2O)cs1)C(=O)N1CCSCC1 [N-(4-(2,4-dihydroxyphenyl)thiazol-2-yl)-2-thiomorpholin-2-oxoacetamide] here?
A: Its inhibition at 2 µg/mL is 76.5%.

Q: CC(=O)C(=O)Nc1nc(-c2ccc(O)cc2O)cs1 [N-(4-(2,4-dihydroxyphenyl)thiazol-2-yl)-2-oxopropanamide] was tested. Which inhibition at 2 µg/mL did it give?
A: The inhibition at 2 µg/mL was 92.6%.

Q: Which inhibition at 2 µg/mL does the source give for CN(C)C(=O)C(=O)Nc1nc(-c2ccc(O)cc2O)cs1 [N-(4-(2,4-dihydroxyphenyl)thiazol-2-yl)-N',N'-dimethyloxalamide] here?
A: Its inhibition at 2 µg/mL is 90.7%.

Q: CCOC(=O)C(=O)Nc1nc(-c2ccc(O)cc2O)cs1 [Ethyl 2-((4-(2,4-dihydroxyphenyl)thiazol-2-yl)amino)-2-oxoacetate] was tested. Which inhibition at 2 µg/mL did it give?
A: Its inhibition at 2 µg/mL is 89.6%.

Q: Which inhibition at 2 µg/mL does the source give for CCN(CC)C(=O)C(=O)Nc1nc(-c2ccc(O)cc2O)cs1 [N-(4-(2,4-dihydroxyphenyl)thiazol-2-yl)-N',N'-diethyloxalamide] here?
A: Its inhibition at 2 µg/mL is 89.2%.
